Drawing on a melting point compilation (Tetko et al.; mined from patent text by program, amines drawn as free bases though some values may be those of a salt), this text covers melting point for 61 compounds.

Each structure is given as a SMILES string.

Usually melting point stands for the temperature, or range, at which the solid turns liquid.

For the compound `COC(=O)C(C)(C)OCc1cc2cc(Cl)ccc2n1S(=O)(=O)c1cc(OC)ccc1OC`, the melting point is 132 to 134 °C. As for `NS(=O)(=O)c1ccc(-c2nc(C(F)(F)F)oc2-c2ccc(Cl)cc2)cc1`, the figure is 167 to 168 °C. Take `CC(C)(C)OC(=O)NC1CC=CC1`: the melting point lay in the range of 68 to 70 °C. As for `COC(=O)c1ccc2oc(-c3ccccc3OC(C)C)cc(=O)c2c1`, the figure is 154 to 155 °C; as for `COC(=O)c1ccc2c(c1)OCC2(C)Cc1ccccc1` (stereo unspecified), 52 °C. `COc1cc(CNc2nc(C)nc(C)c2Cl)ccc1Oc1ccc2ncc([N+](=O)[O-])n2n1` came in with a melting point of 229 to 232 °C. As for `COc1ccc2cc([C@H](C)C(=O)OCC(=O)N(C)CC(=O)OCCCO[N+](=O)[O-])ccc2c1`, the figure is 41 to 43 °C; as for `O=C(Nc1ccccc1)c1ccc(O)c(Nc2ccccc2)c1`, 158 to 159 °C. Consider `CC(=O)OCC1OC(n2cnc(C#N)n2)C(OC(C)=O)C1OC(C)=O` (stereo unspecified), for which the melting point fell in the range of 96 to 97 °C. The compound `CCCCc1nc(SCCF)c(C(=O)O)n1Cc1ccc(-c2ccccc2C(=O)O)cc1` registered a melting point of 185 to 186 °C. As for `COc1c(C=O)cccc1Oc1ccccc1C`, the figure is 53 to 55 °C; as for `COC(=O)CC(C#Cc1cccc(-c2nc(C)no2)c1)c1ccc(OC)c(OC2CCCC2)c1` (racemic), 66 to 68.5 °C. The compound `CCCCC(=O)N(CCCCO)Cc1ccc(-c2ccccc2-c2nnn[nH]2)cc1` yielded a melting point of 110 to 111 °C.

Compound `CCC(=O)c1ccc2c(ccn2S(=O)(=O)c2ccc(C)cc2)c1` showed a melting point of 162 to 164 °C.

For `Cc1nc2cnccc2o1`, the melting point was 56 to 58 °C. As for `CCOC(=O)n1nc(N(C)C)c2c(Cl)cccc21`, the figure is 60 to 62 °C; as for `CNCCCc1cc(C(=O)Nc2ccc(-c3ccc(C(C)=O)cc3)cc2)ccc1OC`, 195 to 196 °C; as for `Cc1cc(Cl)cc(C(=O)NNCC(=O)NCc2ccccc2)c1NC(=O)c1cc(Br)nn1-c1ncccc1Cl`, 120 to 121 °C. With `N#Cc1ccc(CO)cc1F` the figure was 70 to 72 °C; with `O=C(Nc1cc(-c2cccc(-c3ccccc3)c2)[nH]n1)C1Cc2ccccc2C1`, 108 to 110 °C; with `CN(CCCO)C(=O)c1c2ccc(Cl)cc2c(-c2ccccc2)n1C`, 85 to 88 °C. In turn, `CCOC(=O)\C=C(C)/C=C/C=C(C)/C=C/C1=C(C)C[C@@H](O)CC1(C)C` returned a melting point of 93 to 95 °C. Compound `COC(=O)c1c(Cl)cc(C)nc1Oc1c(C)cc(C)cc1C` displayed a melting point of 127 to 128 °C. As for `Cc1oc2c(NC(=O)c3c(Cl)ccc(Cl)c3C(N)=O)cccc2c1C`, the figure is 229 to 232 °C.

In turn, `CC(C)(C)c1nc(C(=O)c2cccs2)nc(C(C)(C)C)c1O` had a melting point of 158 to 159 °C. As for `CCCC1(C2CCCC2)Cc2cc(OCCCC(=O)O)c(Cl)c(Cl)c2C1=O` (stereo unspecified), the melting point lay within 140 to 141 °C. As to `CC(C)(C#N)c1cc(CCl)cc(C(C)(C)C#N)c1`, the melting point is 119 to 121 °C. As for `COc1cc(NC(=O)c2cc(C(C)C)c(C(C)C)s2)ccc1C(=O)O`, the figure is 213 to 214 °C. Regarding `NC(=O)c1nn(-c2ccc(F)cc2)c2c1CCc1ccc(NC(=O)c3cc(N4CCOCC4)ncc3Cl)cc1-2`, the melting point is 309 to 313 °C.

Regarding `CCCCCCCCCCCCCCCCCCOc1cc(NC(C)=O)cc([N+](=O)[O-])c1`, the melting point fell in the range of 103 to 107 °C. Regarding `CN(C)C=CC(=O)c1cccc(NC(=O)C2CCC2)c1`, the melting point fell in the range of 155 to 157 °C. As for `O=C1C=CC(=O)N1c1ccccc1SCCSc1ccccc1N1C(=O)C=CC1=O`, the figure is 110 to 115 °C; as for `Cc1ccc(C)n1-c1cc2c(cc1C(F)(F)F)[nH]c(=O)c(=O)n2CCC(=O)NCc1ccccc1`, 260 to 262 °C; as for `O=c1[nH]c2ccccc2n1C1CCN(C[C@@H]2CO[C@@H](c3ccc(F)cc3)C2)CC1` (relative stereo), 154 to 155 °C. `CN(C)CCNC1=CC(=O)c2nc(-c3ccc4ccccc4c3)sc2C1=O`: the melting point lay in the range of 167 to 168 °C. With `CC(C)(C)c1ccc(-c2ccc3c(C(N)=O)nn(-c4ccc(S(N)(=O)=O)cc4)c3c2)cc1` the figure was 262 to 263 °C. As for `C[C@H]1CN(C(c2ccccc2)(c2ccccc2)c2ccccc2)CCN1c1ccc(C(F)(F)F)c(Cl)n1`, the figure is 210 °C. Compound `C=CCON=C(C)c1cccc(Oc2nc(OC)cc(OC)n2)c1C(=O)OC` had a melting point of 76 to 78 °C.

Compound `O=[N+]([O-])c1ccc(Oc2ccc(CBr)cc2)cc1` came in with a melting point of 68 to 70 °C. As for `Cc1ccc2oc(=O)c(C(=O)Oc3cc(F)ccc3[N+](=O)[O-])cc2c1`, the figure is 224 to 226 °C; as for `O=C(NC(Oc1ccc(Cl)cc1)C(Cl)(Cl)Cl)c1ccccc1O` (stereo unspecified), 116 to 117 °C.

The compound `COc1cccc(-c2nc(N)c(C(N)=O)nc2-c2ccc(=O)n(C(C)C)c2)c1` showed a melting point of 192 °C. `Cc1ccc(S(=O)(=O)C(CCl)Sc2cccc([N+](=O)[O-])c2)cc1` (stereo unspecified) gave a melting point of 92 to 101 °C.

`NC(=O)CCCCCCn1cccc1` showed a melting point of 228 to 233 °C.

Regarding `CSCOc1ccc(-c2coc3ccc(-c4nnc(C)o4)cc23)cc1`, the melting point was 116 to 117 °C. With `NS(=O)(=O)Oc1cccc(C(F)(F)F)c1` the figure was 100 to 102 °C; with `O=Cc1ccc(-c2cc(Br)ccn2)o1`, 105 to 106 °C; with `COC(=O)c1cscc1OC(C)=O`, 56 to 58 °C.

Regarding `CCN(Cc1ccccc1Oc1ccccc1)c1ccc(C(=O)O)nn1`, the melting point fell in the range of 70 to 75 °C. `Cn1c(C(F)(F)F)nnc1S(C)(=O)=O` returned a melting point of 96 °C. With `Cc1ccc(-c2c(NS(=O)(=O)c3ccc(C(C)(C)C)cc3)nc(S(C)(=O)=O)nc2OCCOCc2ccccc2)cc1` the figure was 129 to 130 °C; with `O=C(O)CCCCCc1nc2ccccc2n1-c1ccccc1`, 132 to 133 °C. With `CCCCCS(=O)(=O)NC(=O)/C=C/c1ccc(OCCOC)cc1Oc1ncc([N+](=O)[O-])cc1C` the figure was 148 to 150 °C; with `Cn1c2c(c3cc(OCc4ccccc4)ccc31)CC(CCN)C2` (stereo unspecified), 72 to 75 °C. Regarding `NS(=O)(=O)c1ccc(-c2cccc(-c3nc(-c4ccc(Cl)cc4)cc(C(F)(F)F)n3)c2)s1`, the melting point worked out at 226 °C. On to `COc1ccccc1N1CCN(CCC(C#N)(c2ccccc2)c2ccccc2[N+](=O)[O-])CC1` (stereo unspecified), for which the melting point is 61 to 64 °C. In turn, `CCCc1nc2c(N)nc3ccccc3c2n1O` displayed a melting point of 232 to 235 °C. In turn, `Nc1ccc2[nH]c(C(=O)N3CC(CCl)c4c3cc(N)c3ccccc43)cc2c1` (stereo unspecified) had a melting point of more than 300 °C. With `Cc1cc(OC(=O)c2ccccc2)c2ccccc2c1O` the figure was 172 to 174 °C; with `O=C(OCC1CC1)c1ncn2c1[C@@H]1CCN1C(=O)c1c(I)cccc1-2`, 190 to 191 °C; with `CNC(=O)N(O)Cc1cccs1`, 108 °C.
